Data: US9290496B2, “Purine derivatives” (PFIZER INC., priority 2013, dated 2016)
Where two headings read alike, the source gives them in different places.

Assays:
Type in all cases: cell-based
EGFR L858R (NCI-H3255) = molecular target: T1, EGFR L858R (NCI-H3255) (Homo sapiens, UniProt P00533, L858R); experiment: pEGFR Y1068 ELISA assay, NCI-H3255 cells
T1 construct: detects endogenous levels of phospho-EGF Receptor (Tyr1068) protein; host or cells: NCI-H3255
Method: (§1) The PathScan® Phospho-EGF Receptor (Tyr1068) Sandwich ELISA Kit is a solid phase sandwich enzyme-linked immunosorbent assay (ELISA) that detects endogenous levels of phospho-EGF Receptor (Tyr1068) protein. […] NCI-H3255 cells were licensed from NCI. […] All cells were cultured according to ATCC recommendations. A549, NCI-H1975, PC9, and NCI-H3255 cells were grown in RPMI media (Invitrogen, Carlsbad, Calif.) supplemented with 10% FBS (Sigma, St Louis, Mo.), and with 1% Penn/Strep (Invitrogen).
(§2) Each compound was prepared as a DMSO stock solution (10 mM). Compounds were tested in duplicate on each plate, with an 11-point serial dilution curve (1:3 dilution). Compound treatment (50 μL) was added from the compound dilution plate to the cell plate. […] Plates were then incubated for 2 hr at 37° C., 5% CO2. […] The wash was then flicked off and ice-cold lysis buffer was added to the cells (50 μL/well). The plate was shaken for 20-30 min at 4° C. to completely lyse the cells. Sample diluent (50 μL/well) was added to the ELISA plate, and the lysate (50 μL) was diluted into the sample diluent in each well of the ELISA plate. Plates were sealed and incubated overnight at 4° C. with shaking. The next day, wells were washed four times with 1× Wash Buffer; plates were taped on lint-free paper after the final wash prior to adding Add Detection Antibody (green, 100 μL/well) to each well and incubating for 1 hr at 37° C. After incubation, wells were washed as described. HRP-Linked secondary antibody (red, 100 μL/well) was added to each well and incubated for 30 min at 37° C. After incubation, the wells were washed as described. TMB Substrate (100 μL/well) was added to each well and the plate incubated for 10 min at 37° C. or 30 min at rt maximum. Stop Solution (100 μL/well) was added to each well at the end of the incubation and plates were shaken gently for a few seconds. […] Data were analyzed using a four-parameter fit in Microsoft Excel.

[1] = molecular target: T2, EGFR wildtype, endogenous (A549) (Homo sapiens, UniProt P00533); experiment: pEGFR Y1068 ELISA assay, A549 cells; settings: inhibition of phosphorylation of EGFR at Tyr1068; A549 NSCLC cells; 2 hr compound incubation, then stimulated 10 min with EGF (40 ng/mL)
T2 construct: A549 (EGFR wildtype, endogenous); host or cells: A549 (stimulated with EGF)
T2 sequence (P00533 25-1210): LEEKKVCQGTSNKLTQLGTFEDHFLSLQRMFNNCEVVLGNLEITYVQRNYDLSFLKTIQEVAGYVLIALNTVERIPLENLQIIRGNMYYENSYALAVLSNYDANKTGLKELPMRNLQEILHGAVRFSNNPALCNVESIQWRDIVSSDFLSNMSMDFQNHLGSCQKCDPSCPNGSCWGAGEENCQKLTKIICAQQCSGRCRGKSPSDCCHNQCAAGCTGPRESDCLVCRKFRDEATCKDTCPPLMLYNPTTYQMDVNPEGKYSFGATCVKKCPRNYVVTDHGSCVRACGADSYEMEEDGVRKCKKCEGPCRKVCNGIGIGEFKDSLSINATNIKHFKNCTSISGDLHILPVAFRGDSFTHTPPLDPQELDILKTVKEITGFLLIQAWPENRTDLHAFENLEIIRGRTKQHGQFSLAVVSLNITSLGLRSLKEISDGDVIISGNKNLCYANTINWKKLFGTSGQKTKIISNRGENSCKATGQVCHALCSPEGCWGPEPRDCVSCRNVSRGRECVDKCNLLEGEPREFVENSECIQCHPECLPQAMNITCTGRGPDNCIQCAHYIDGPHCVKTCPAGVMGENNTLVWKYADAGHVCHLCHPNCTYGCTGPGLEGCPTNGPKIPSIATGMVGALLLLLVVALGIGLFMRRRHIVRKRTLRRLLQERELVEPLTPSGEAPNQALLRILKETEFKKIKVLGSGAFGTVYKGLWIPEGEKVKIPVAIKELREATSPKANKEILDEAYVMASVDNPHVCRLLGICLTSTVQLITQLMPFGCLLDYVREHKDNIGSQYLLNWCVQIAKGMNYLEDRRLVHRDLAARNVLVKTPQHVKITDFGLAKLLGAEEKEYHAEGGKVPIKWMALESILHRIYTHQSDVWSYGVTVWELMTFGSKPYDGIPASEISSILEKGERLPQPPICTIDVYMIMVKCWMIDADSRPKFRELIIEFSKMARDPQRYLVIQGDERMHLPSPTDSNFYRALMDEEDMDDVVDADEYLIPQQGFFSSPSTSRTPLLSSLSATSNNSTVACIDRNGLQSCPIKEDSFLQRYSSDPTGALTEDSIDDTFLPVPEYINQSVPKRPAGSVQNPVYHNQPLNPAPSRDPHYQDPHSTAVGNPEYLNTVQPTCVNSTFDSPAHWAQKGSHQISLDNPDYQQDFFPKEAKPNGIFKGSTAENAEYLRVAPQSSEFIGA
Method: (§3) Phosphorylation of EGFR at Y1068 was measured by PathScan® Phospho-EGF Receptor (Try1068) Sandwich ELISA kit (#7240, Cell Signaling Technology®, Danvers, Mass.). The PathScan® Phospho-EGF Receptor (Tyr1068) Sandwich ELISA Kit is a solid phase sandwich enzyme-linked immunosorbent assay (ELISA) that detects endogenous levels of phospho-EGF Receptor (Tyr1068) protein. […] All cells were cultured according to ATCC recommendations. A549, NCI-H1975, PC9, and NCI-H3255 cells were grown in RPMI media (Invitrogen, Carlsbad, Calif.) supplemented with 10% FBS (Sigma, St Louis, Mo.), and with 1% Penn/Strep (Invitrogen). PC9-DRH cells were grown in RPMI with 10% FBS and 1 μM dacomitinib.
(§4) Cells were plated at 40,000/well in complete culture media (50 μL/well) on the bottom of clear tissue culture treated microtiter plates (#3595, Corning Inc, Corning, N.Y.) and allowed to adhere overnight at 37° C., 5% CO2. The following day, compound dilution plates were prepared in 96 well clear V-bottom 0.5 mL polypropylene block plates (#3956, Corning, Inc). Each compound was prepared as a DMSO stock solution (10 mM). Compounds were tested in duplicate on each plate, with an 11-point serial dilution curve (1:3 dilution). Compound treatment (50 μL) was added from the compound dilution plate to the cell plate. […] Plates were then incubated for 2 hr at 37° C., 5% CO2. For A549 (EGFR wildtype) assay, cells were plated in full-serum (10%) media for 24 hr prior to compound treatment; cells were treated in full serum media as described and then stimulated for 10 min with EGF (40 ng/mL/starvation media, Invitrogen). Immediately prior to the end of the incubation, ice-cold lysis buffer was prepared (1× Cell Lysis Buffer (#9803, Cell Signaling Technology), 1 mM sodium orthovanadate (Na3VO4, #96508, Sigma), 1 mM phenylmethanesulfonyl fluoride (PMSF, 52332, CalBiochem/EMD Chemicals), complete Mini EDTA-free Protease Inhibitor Cocktail Tablet (1 tablet/10 mL, #11836170001, Roche, Indianapolis, Ind.), and PhosSTOP Phosphatase Inhibitor Cocktail Tablet (1 tablet/10 mL, #04906837001, Roche) in pure water. At the end of 2 hr, media was flicked off and cells were washed once with ice-cold 1 mM Na3VO4 in PBS (100 μL/well, Invitrogen). The wash was then flicked off and ice-cold lysis buffer was added to the cells (50 μL/well). The plate was shaken for 20-30 min at 4° C. to completely lyse the cells. Sample diluent (50 μL/well) was added to the ELISA plate, and the lysate (50 μL) was diluted into the sample diluent in each well of the ELISA plate. Plates were sealed and incubated overnight at 4° C. with shaking. The next day, wells were washed four times with 1× Wash Buffer; plates were taped on lint-free paper after the final wash prior to adding Add Detection Antibody (green, 100 μL/well) to each well and incubating for 1 hr at 37° C. After incubation, wells were washed as described. HRP-Linked secondary antibody (red, 100 μL/well) was added to each well and incubated for 30 min at 37° C. After incubation, the wells were washed as described. TMB Substrate (100 μL/well) was added to each well and the plate incubated for 10 min at 37° C. or 30 min at rt maximum. Stop Solution (100 μL/well) was added to each well at the end of the incubation and plates were shaken gently for a few seconds. Absorbance was read at 450 nm within 30 min after addition of Stop Solution on a PerkinElmer EnVision Excite Multilabel Reader Method for Absorbance or on a Molecular Devices SpectraMax^384 Reader for absorbance. Data were analyzed using a four-parameter fit in Microsoft Excel.

[2] = molecular target: T3, EGFR L858R+T790M, endogenous (NCI-H1975) (Homo sapiens, UniProt P00533, L858R/T790M); experiment: pEGFR Y1068 ELISA assay, NCI-H1975 cells; settings: inhibition of phosphorylation of EGFR at Tyr1068; NCI-H1975 NSCLC cells; 2 hr compound incubation
T3 construct: NCI-H1975 (EGFR L858R+T790M, endogenous); host or cells: NCI-H1975
T3 sequence (P00533 25-1210 T790M/L858R): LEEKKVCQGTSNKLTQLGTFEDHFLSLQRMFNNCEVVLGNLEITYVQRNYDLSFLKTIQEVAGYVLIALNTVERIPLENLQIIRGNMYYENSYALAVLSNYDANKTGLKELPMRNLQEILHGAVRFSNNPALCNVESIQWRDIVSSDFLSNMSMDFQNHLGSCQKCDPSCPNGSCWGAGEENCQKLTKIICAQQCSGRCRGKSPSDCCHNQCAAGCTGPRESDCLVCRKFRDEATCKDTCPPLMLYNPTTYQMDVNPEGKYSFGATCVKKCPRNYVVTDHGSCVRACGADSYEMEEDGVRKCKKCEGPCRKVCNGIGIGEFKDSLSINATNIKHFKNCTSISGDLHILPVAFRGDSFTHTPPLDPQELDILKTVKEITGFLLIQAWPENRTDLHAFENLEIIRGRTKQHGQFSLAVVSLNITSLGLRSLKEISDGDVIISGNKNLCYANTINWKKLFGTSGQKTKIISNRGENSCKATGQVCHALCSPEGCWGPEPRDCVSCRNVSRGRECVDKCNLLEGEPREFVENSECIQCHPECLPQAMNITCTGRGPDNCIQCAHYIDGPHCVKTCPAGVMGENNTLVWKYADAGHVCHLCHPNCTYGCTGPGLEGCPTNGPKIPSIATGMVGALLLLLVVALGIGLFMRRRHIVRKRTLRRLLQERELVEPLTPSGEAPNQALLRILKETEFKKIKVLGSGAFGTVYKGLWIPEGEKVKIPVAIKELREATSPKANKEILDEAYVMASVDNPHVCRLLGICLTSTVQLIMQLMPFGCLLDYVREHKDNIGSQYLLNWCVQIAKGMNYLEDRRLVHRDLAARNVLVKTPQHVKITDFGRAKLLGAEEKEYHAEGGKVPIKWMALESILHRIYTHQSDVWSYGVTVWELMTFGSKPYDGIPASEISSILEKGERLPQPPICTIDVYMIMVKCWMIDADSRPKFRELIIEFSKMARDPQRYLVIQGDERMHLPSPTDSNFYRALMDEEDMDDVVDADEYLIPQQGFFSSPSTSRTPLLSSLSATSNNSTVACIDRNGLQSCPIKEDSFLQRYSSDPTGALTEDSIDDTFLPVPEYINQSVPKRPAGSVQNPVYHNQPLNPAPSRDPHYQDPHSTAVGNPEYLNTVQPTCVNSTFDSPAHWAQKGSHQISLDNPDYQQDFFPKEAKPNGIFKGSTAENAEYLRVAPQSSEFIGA
Method: as §3, §4

EGFR del/T790M (PC9-DRH) = molecular target: T4, EGFR del/T790M (PC9-DRH) (Homo sapiens, UniProt P00533, DEL746-750/T790M); experiment: pEGFR Y1068 ELISA assay, PC9-DRH cells; settings: inhibition of phosphorylation of EGFR at Tyr1068; PC9-DRH cells (dacomitinib resistant); 2 hr compound incubation
T4 construct: detects endogenous levels of phospho-EGF Receptor (Tyr1068) protein; endogenous in cells; host or cells: PC9-DRH (dacomitinib-resistant derivative of PC9, generated in house)
T4 sequence (P00533 with tags, fused parts or gaps DEL746-750/T790M): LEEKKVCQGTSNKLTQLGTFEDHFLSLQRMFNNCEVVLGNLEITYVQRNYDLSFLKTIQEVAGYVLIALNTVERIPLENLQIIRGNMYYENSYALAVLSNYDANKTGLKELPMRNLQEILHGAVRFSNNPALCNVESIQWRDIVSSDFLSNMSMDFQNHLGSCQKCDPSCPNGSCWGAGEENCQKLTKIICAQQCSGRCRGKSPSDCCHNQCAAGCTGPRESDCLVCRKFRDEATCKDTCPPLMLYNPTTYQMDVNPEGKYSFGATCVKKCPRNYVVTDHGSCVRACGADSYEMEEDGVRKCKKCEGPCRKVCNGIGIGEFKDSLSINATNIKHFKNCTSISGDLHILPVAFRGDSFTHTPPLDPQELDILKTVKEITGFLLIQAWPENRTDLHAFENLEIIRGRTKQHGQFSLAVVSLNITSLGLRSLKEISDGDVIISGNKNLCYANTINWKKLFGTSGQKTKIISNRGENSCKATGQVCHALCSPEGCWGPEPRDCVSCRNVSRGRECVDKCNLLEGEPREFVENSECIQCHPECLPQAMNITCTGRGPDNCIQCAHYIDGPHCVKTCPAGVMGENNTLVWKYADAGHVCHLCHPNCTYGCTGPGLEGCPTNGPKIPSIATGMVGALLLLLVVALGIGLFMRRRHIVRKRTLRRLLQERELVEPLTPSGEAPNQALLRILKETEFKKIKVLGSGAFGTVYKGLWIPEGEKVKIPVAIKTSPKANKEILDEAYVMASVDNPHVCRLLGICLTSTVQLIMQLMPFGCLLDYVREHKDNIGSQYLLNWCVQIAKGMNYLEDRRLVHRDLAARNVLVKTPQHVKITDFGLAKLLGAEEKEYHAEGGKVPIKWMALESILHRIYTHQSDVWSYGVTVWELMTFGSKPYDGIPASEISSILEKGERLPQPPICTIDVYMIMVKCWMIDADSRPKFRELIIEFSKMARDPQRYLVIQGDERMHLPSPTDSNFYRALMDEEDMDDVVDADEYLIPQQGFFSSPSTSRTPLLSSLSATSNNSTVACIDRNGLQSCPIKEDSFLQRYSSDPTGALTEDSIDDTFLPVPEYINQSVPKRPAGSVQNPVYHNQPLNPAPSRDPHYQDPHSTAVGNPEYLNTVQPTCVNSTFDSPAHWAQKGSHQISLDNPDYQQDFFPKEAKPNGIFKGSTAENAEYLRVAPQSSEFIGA
Method: as §1, §2

EGFR del (PC9) = molecular target: T5, EGFR del (PC9) (Homo sapiens, UniProt P00533, DEL746-750); experiment: pEGFR Y1068 ELISA assay, PC9 cells; settings: inhibition of phosphorylation of EGFR at Tyr1068; PC9 NSCLC cells; 2 hr compound incubation
T5 construct: detects endogenous levels of phospho-EGF Receptor (Tyr1068) protein; host or cells: PC9
T5 sequence (P00533 with tags, fused parts or gaps DEL746-750): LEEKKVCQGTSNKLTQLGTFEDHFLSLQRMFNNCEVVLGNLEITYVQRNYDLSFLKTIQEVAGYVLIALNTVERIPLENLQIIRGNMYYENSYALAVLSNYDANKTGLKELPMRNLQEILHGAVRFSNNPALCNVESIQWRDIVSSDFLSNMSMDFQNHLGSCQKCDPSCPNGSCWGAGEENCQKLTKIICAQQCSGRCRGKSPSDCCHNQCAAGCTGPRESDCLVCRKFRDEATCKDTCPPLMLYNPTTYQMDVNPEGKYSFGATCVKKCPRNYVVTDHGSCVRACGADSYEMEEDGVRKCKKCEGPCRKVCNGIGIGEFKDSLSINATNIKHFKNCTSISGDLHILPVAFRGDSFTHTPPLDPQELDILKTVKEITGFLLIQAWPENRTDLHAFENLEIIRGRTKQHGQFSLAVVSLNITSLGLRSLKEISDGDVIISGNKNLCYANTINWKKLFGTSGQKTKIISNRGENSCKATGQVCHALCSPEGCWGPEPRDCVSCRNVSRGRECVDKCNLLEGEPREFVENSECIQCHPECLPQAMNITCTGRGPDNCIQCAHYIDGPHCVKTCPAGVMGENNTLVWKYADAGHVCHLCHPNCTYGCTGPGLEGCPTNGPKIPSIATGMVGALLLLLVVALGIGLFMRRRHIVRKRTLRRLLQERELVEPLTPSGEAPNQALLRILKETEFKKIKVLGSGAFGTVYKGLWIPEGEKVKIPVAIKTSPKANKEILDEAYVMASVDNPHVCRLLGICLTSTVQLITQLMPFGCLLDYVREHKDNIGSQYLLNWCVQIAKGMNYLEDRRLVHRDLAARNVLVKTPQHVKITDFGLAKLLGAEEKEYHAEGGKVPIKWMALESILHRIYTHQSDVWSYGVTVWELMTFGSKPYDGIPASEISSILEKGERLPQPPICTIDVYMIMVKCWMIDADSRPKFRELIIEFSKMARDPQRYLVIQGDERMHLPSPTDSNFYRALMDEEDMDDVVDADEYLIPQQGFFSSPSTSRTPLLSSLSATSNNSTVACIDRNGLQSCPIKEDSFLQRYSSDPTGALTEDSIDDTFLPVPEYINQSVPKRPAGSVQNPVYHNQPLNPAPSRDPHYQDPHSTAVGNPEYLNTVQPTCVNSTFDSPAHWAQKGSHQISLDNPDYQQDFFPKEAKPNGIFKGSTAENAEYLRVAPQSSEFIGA
Method: as §1, §2

Structure (SMILES) | IC50 (EGFR L858R (NCI-H3255)) | IC50 [1] | IC50 [2] | IC50 (EGFR del/T790M (PC9-DRH)) | IC50 (EGFR del (PC9)) | IC50 (EGFR L858R (NCI-H3255); inhibition of phosphorylation of EGFR at Tyr1068, NCI-H3255 NSCLC cells, 2 hr compound incubation)
C=CC(=O)N[C@@H]1CN(c2nc(Nc3cn(C4CCN(C)C4)nc3OC)c3ncn(CC)c3n2)C[C@H]1F (stereo partly drawn) [Example 75, N-((3R,4R)-1-(9-ethyl-6-((3-methoxy-1-(1-methylpyrrolidin-3-yl)-1H-pyrazol-4-yl)amino)-9H-purin-2-yl)-4-fluoropyrrolidin-3-yl)acrylamide] | 1 nM | 64 nM | 11 nM | 2 nM | – | –
C=CC(=O)N[C@@H]1CN(c2nc(Nc3ccc(N4CCN(C)CC4)cc3)c3ncn(C(C)C)c3n2)C[C@H]1OC [Example 62, N-((3R,4R)-1-(9-isopropyl-6-((4-(4-methylpiperazin-1-yl)phenyl)amino)-9H-purin-2-yl)-4-methoxypyrrolidin-3-yl)acrylamide] | 1 nM | – | 6 nM | – | 3 nM | –
C=CC(=O)N[C@@H]1CN(c2nc(Nc3cn(C4CCN(C)C4)nc3C)c3ncn(C(C)C)c3n2)C[C@H]1F (stereo partly drawn) [Example 65, N-((3R,4R)-4-fluoro-1-(9-isopropyl-6-((3-methyl-1-(1-methylpyrrolidin-3-yl)-1H -pyrazol-4-yl)amino)-9H-purin-2-yl)pyrrolidin-3-yl)acrylamide] | – | 1260 nM | 14 nM | 9 nM | 11 nM | –
C=CC(=O)N[C@H]1CCN(c2nc(Nc3cnn(C)c3)c3ncn(C(C)C)c3n2)C1 [Example 4, (S)-N-(1-(9-isopropyl-6-((1-methyl-1H-pyrazol-4-yl)amino)-9H-purin-2-yl)pyrrolidin-3-yl)acrylamide] | 59 nM | 652 nM | 52 nM | – | 52 nM | –
C=CC(=O)N[C@H]1CCN(c2nc(Nc3ccc(N4CCN(C)CC4)cc3)c3ncn(CCO)c3n2)C1 [Example 46, (S)-N-(1-(9-(2-hydroxyethyl)-6-((4-(4-methylpiperazin-1-yl)phenyl)amino)-9H -purin-2-yl)pyrrolidin-3-yl)acrylamide] | – | 4190 nM | 387 nM | – | 31 nM | 7 nM
C=CC(=O)N[C@H]1CCN(c2nc(Nc3cnn(C4CCN(C)C4)c3)c3ncn(C(C)C)c3n2)C1 (stereo partly drawn) [Example 45, N-((3S)-1-(9-isopropyl-6-((1-(1-methylpyrrolidin-3-yl)-1H-pyrazol-4-yl)amino)-9H -purin-2-yl)pyrrolidin-3-yl)acrylamide] | – | 1910 nM | 26 nM | 3 nM | 7 nM | –
C=CC(=O)N[C@@H]1CN(c2nc(Nc3cnn(C)c3)c3ncn(C(C)C)c3n2)C[C@H]1OC [Example 63, N-((3R,4R)-1-(9-isopropyl-6-((1-methyl-1H-pyrazol-4-yl)amino)-9H-purin-2-yl)-4-methoxypyrrolidin-3-yl)acrylamide] | – | 551 nM | 32 nM | 5 nM | 14 nM | –

Now from value to compound:

IC50 (EGFR L858R (NCI-H3255)) | IC50 [1] | IC50 [2] | IC50 (EGFR del/T790M (PC9-DRH)) | IC50 (EGFR del (PC9)) | IC50 (EGFR L858R (NCI-H3255); inhibition of phosphorylation of EGFR at Tyr1068, NCI-H3255 NSCLC cells, 2 hr compound incubation) | Structure (SMILES)
9 nM | 3040 nM | 64 nM | 3 nM | 38 nM | – | C=CC(=O)N[C@H]1CCN(c2nc(Nc3cnn(C4CCN(C)CC4)c3)c3ncn(C(C)C)c3n2)C1 [Example 41, (S)-N-(1-(9-isopropyl-6-((1-(1-methylpiperidin-4-yl)-1H-pyrazol-4-yl)amino)-9H -purin-2-yl)pyrrolidin-3-yl)acrylamide]
9 nM | 1200 nM | 15 nM | 3 nM | 45 nM | – | C=CC(=O)N[C@@H]1CN(c2nc(Nc3cn(CC(C)O)nc3OC)c3ncn(C(C)C)c3n2)C[C@H]1F (stereo partly drawn) [Example 84, N-((3R,4R)-4-fluoro-1-(6-((1-(2-hydroxypropyl)-3-methoxy-1H-pyrazol-4-yl)amino)-9-isopropyl-9H-purin-2-yl)pyrrolidin-3-yl)acrylamide]
– | 2850 nM | 66 nM | 10 nM | 20 nM | – | C=CC(=O)NC1(C)CN(c2nc(Nc3cnn(C4CCN(C)CC4)c3)c3ncn(C(C)C)c3n2)C1 [Example 39, N-(1-(9-isopropyl-6-((1-(1-methylpiperidin-4-yl)-1H-pyrazol-4-yl)amino)-9H-purin-2-yl)-3-methylazetidin-3-yl)acrylamide]
